Assay results published in patent US20220211630A1, “SOLID NANOPARTICLE FORMULATION OF WATER INSOLUBLE PHARMACEUTICAL SUBSTANCES WITH REDUCED OSTWALD RIPENING AND IMMEDIATE DRUG RELEASE FOLLOWING INTRAVENOUS ADMINISTRATION” (priority 2019, published 2022).
≈ marks a conversion by molar mass, not a printed value. Like-named read-outs stand apart in the source and are kept apart here.

How the values were obtained:
human CB2 receptors = human CB2 receptors (Homo sapiens, UniProt P34972); details: read-out: Affinity; cited from earlier work
Chain of human CB2 receptors (P34972 whole entry): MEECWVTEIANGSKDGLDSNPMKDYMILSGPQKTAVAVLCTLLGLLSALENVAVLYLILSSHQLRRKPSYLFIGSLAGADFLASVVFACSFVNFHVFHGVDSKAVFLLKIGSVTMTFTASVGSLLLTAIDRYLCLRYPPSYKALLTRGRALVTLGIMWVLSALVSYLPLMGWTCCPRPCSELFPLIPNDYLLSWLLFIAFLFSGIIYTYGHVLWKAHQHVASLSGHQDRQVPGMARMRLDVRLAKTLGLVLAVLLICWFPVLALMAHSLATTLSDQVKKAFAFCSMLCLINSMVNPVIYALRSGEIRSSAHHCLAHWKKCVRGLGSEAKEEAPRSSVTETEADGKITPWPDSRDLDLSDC

[1] = cited from earlier work
[2] = oral, human gastrointestinal tract; cited from earlier work
human CB1 receptors = human CB1 receptors (Homo sapiens, UniProt P21554); details: read-out: Affinity; cited from earlier work
Chain of human CB1 receptors (P21554 whole entry): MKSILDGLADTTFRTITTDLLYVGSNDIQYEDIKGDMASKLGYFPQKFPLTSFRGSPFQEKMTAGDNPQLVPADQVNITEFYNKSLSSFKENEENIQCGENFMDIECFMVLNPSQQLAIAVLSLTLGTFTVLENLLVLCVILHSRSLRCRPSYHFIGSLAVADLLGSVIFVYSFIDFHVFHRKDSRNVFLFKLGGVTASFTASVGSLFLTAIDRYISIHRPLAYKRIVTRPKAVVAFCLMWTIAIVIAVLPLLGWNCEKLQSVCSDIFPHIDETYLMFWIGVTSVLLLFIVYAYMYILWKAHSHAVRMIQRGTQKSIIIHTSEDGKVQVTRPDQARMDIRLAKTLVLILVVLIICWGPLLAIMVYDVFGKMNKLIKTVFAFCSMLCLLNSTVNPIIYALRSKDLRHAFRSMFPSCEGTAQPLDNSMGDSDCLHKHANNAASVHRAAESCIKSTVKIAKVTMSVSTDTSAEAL

[3] = Drug solubility in supernatant of reconstituted suspension after ultracentrifugation (HPLC); type: physicochemical; details: room temperature
Protocol: The quantities of docetaxel, rapamycin and 17-AAG and human albumin in the supernatant were measured by high performance liquid chromatography (HPLC) and the results are summarized in Table 9.
The quantities of ixabepilone and rapamycin in the supernatant were measured by high performance liquid chromatography (HPLC) and the results are summarized in Table 18.

[4] = LBI-1103 (Lot RAD002) reconstituted suspension (5 mg/mL Docetaxel; 5 mg/mL Rapamycin and 10 mg/mL 17-AAG), 87,000 rpm 1 hour
[5] = LBI-0728 (Lot CRX001) reconstituted suspension (2 mg/mL Ixabepilone and 5 mg/mL Rapamycin), 87,000 rpm 1 hour

SMILES: CCCCCCC(C)(C)c1cc(O)c2c(c1)OC(C)(C)C1CCC(=O)CC21 (racemic) [Nabilone, (±)-trans-3-(1,1-dimethylheptyl)-6,6a,7,8,10,10a-hexahydro-1-hydroxy-6-6-dimethyl-9H-dibenzo[b,d]pyran-9-one]
- Ki (human CB2 receptors): 1.8 nM
- Solubility in water ([1]; pH values ranging from 1.2 to 7.0): less than 0.5 mg/L
- Absorption when administered orally [2]: completely absorbed
- Ki (human CB1 receptors): 2.2 nM

SMILES: CC(=O)O[C@@]12CO[C@@H]1C[C@H](O)[C@@]1(C)C(=O)[C@H](O)C3=C(C)[C@@H](OC(=O)[C@H](O)[C@@H](NC(=O)OC(C)(C)C)c4ccccc4)C[C@@](O)([C@@H](OC(=O)c4ccccc4)[C@H]21)C3(C)C [Docetaxel]
- solubility [3, 4]: 114 µg/mL
- Solubility in water [1]: about 14 mg/L

SMILES: CO[C@H]1C[C@@H]2CC[C@@H](C)[C@@](O)(O2)C(=O)C(=O)N2CCCC[C@H]2C(=O)O[C@H]([C@H](C)C[C@@H]2CC[C@@H](OCCO)[C@H](OC)C2)CC(=O)[C@H](C)/C=C(\C)[C@@H](O)[C@@H](OC)C(=O)[C@H](C)C[C@H](C)/C=C/C=C/C=C/1C [Everolimus, 40-O-(2-Hydroxy)ethyl rapamycin]
- solubility ([3]; LBI-0609 (Lot CEP002) reconstituted suspension (X mg/mL Everolimus and 5 mg/mL Paclitaxel), 87,000 rpm 1 hour): 14 µg/mL (≈ 14.6 µM)

SMILES: C=CCNC1=C2C[C@@H](C)C[C@H](OC)[C@H](O)[C@@H](C)/C=C(\C)[C@H](OC(N)=O)[C@@H](OC)/C=C\C=C(/C)C(=O)NC(=CC1=O)C2=O [Example 17AAG, 17-allylaminogeldanamycin]
- solubility [3, 4]: 108 µg/mL

SMILES: C/C(=C\c1csc(C)n1)[C@@H]1C[C@@H]2O[C@]2(C)CCC[C@H](C)[C@H](O)[C@@H](C)C(=O)C(C)(C)[C@@H](O)CC(=O)N1 [Ixabepilone]
- solubility [3, 5]: 407 µg/mL
- Solubility in water [1]: about 3.5 mg/L

SMILES: CC(=O)O[C@H]1C(=O)[C@@]2(C)[C@H]([C@H](OC(=O)c3ccccc3)[C@]3(O)C[C@H](OC(=O)[C@H](O)[C@@H](NC(=O)c4ccccc4)c4ccccc4)C(C)=C1C3(C)C)[C@]1(OC(C)=O)CO[C@@H]1C[C@@H]2O [Paclitaxel]
- Drug Solubility in Supernatant ([3]; LBI-0609 (Lot CEP002) reconstituted suspension (Everolimus and 5 mg/mL Paclitaxel), 87,000 rpm 1 hour): 82 µg/mL
- Solubility in water [1]: about 0.4 mg/L

SMILES: CO[C@H]1C[C@@H]2CC[C@@H](C)[C@@](O)(O2)C(=O)C(=O)N2CCCC[C@H]2C(=O)O[C@H]([C@H](C)C[C@@H]2CC[C@@H](O)[C@H](OC)C2)CC(=O)[C@H](C)/C=C(\C)[C@@H](O)[C@@H](OC)C(=O)[C@H](C)C[C@H](C)/C=C/C=C/C=C/1C [Rapamycin]
- solubility [3, 5]: 22 µg/mL
- solubility [3, 4]: 19 µg/mL
- Solubility in water [1]: insoluble in water

SMILES: CO[C@H]1C(=O)[C@]2(C)[C@@H](OC)C[C@H]3OC[C@@]3(OC(C)=O)[C@H]2[C@H](OC(=O)c2ccccc2)[C@]2(O)C[C@H](OC(=O)[C@H](O)[C@@H](NC(=O)OC(C)(C)C)c3ccccc3)C(C)=C1C2(C)C [cabazitaxel]
- Solubility in water [1]: about 8 mg/L
